Laboratory results taken from patent US20260069656A1, “Nutritive Polypeptides and Formulations Thereof, and Methods of Production and Use Thereof” (Axcella Health Inc., priority 2013, published 2026).

How the values were obtained:
[1] = Intact half-life during simulated gastric fluid (SGF) digestion; details: SGF pH 1.5, pepsin:polypeptide 1:20 w/w, 37° C.; produced in E. coli unless otherwise noted
Method: Nutritive polypeptide half-life during simulated digestion. One metric for quantifying the breakdown of polypeptides from an intact form to smaller peptides is the intact half-life. In this experiment the nutritive polypeptide was exposed to a series of proteases that are active in the stomach (pepsin) and intestine (trypsin and chymotrypsin), and the presence of intact protein was measured over time. Specifically, the nutritive polypeptide was first treated at a concentration of 2 g/L with simulated gastric fluid (SGF) (0.03 M NaCl, titrated with HCl to pH 1.5 with a final pepsin: polypeptide ratio of 1:20 w/w) at 37° C. Time points were sampled from the reaction and quenched by addition of 0.2 M Na2CO3. […] Time points were sampled from the reaction and quenched by addition of Trypsin/Chymotrypsin Inhibitor (Sigma) solution until 240 min.
Time point samples were analyzed for intact protein by chip electrophoresis, polyacrylamide gel electrophoresis, or western blot. For chip electrophoresis (Labchip GX II), samples were analyzed using a HT Low MW Protein Express LabChip® Kit (following the manufacturer's protocol). A protein ladder was loaded every 12 samples for molecular weight determination (kDa) and quantification. For polyacrylamide gel electrophoresis, samples (1 μg) were separated on a NuPAGE® Novex® Bis-Tris Precast gel (Life Technologies) according to the manufacturer's protocol. The gel was stained using SimplyBlue™ SafeStain (Invitrogen) and imaged using a Chemidoc XRS+ (BioRad) or transferred onto nitrocellulose membranes using the iBlot® Dry Blotting System (Life Technologies) and iBlot® Western Detection Kit (Life Technologies) according to the manufacturer's protocol. Proteins were detected by blotting with Anti-His [C-term]-HRP antibody diluted 3:5000 in Blok™-PO Blocking Buffer using the SNAP i.d.® Protein Detection System (Millipore) according to the manufacturer's protocol. Blots were treated with Luminata Classico Western HRP Substrate (Millipore) according to the manufacturer's protocol and imaged using chemiluminescent detection on the Molecular Imager® Gel Doc™ XR+ System (Bio-Rad). Quantification of intact protein was determined by densitometry using ImageLab (BioRad). For all analysis methods the relative concentration of the polypeptide at each time point (if detected) was plotted overtime and fit to an exponential curve to calculate the intact half-life.
Specifically, the t=0 (enzyme-free control) and t=2 min samples from the SGF digest were analyzed for intact protein as described by chip electrophoresis, SDS-PAGE, western blot, and/or LC-MS/MS. Relative quantities of polypeptides at each time point were determined and the percentage of intact protein remaining at t=2 was determined.

Zucker fatty rats = experiment: OGTT in Zucker fatty rats, SEQID-00105 vs alogliptin vs combination (glucose 2 g/kg); format: in vivo, rat
Method: In another experiment, an OGTT was performed in 24, fasted, male Zucker fatty rats with indwelling jugular vein catheters (JVC) to assess the acute effects of nutritive protein dosing on glycemic control as well as insulin and GLP-1 levels. The capacity of SEQID-00105 to improve glucose control was tested by comparing the blood glucose excursion of SEQID-00105 to alogliptin to SEQID-00105+alogliptin to vehicle in the context of an oral glucose tolerance test. All rodents were approximately 10-11 weeks old, weighed average of approximately 430 g and acclimated for 4-5 days prior to testing. Prior to treatment, all rats were fasted overnight for fourteen hours. […] N=6 rats per treatment group. The error bars shown are the standard errors of the mean. Each group was compared post hoc on GraphPad Prism 6, two-way ANOVA, Dunnett's multiple comparisons test first comparing within each group to the fasting glucose concentration, followed by a comparison of each time point to vehicle. […] The integrated area under curve (AUC) was calculated on Microsoft Excel using the Linear-Log Trapezoidal Method and two-way ANOVA and Dunnett's multiple comparisons tests was conducted on GraphPad Prism 6.03.

burn injury = details: 0.35 g/kg, cited from earlier work
[2] = system: mTORC1 (phosphorylation of ribosomal protein S6, rps6); experiment: AlphaScreen SureFire Ribosomal Protein S6 assay in primary rat skeletal muscle cells; format: cell-based
Description: Primary Rat Skeletal Muscle Cell (RSKMC) culture medium was purchased from Cell Applications (Catalog number: R150-500, San Diego, CA). Starvation medium DMEM/F12 was bought from Sigma (Catalog number: D9785, St. Louis, MO). […] Fetal bovine serum (FBS) and other growth factors were obtained from Cell Applications (Catalog number: R151-GS, San Diego, CA). Tissue culture flasks and clear bottom 96-well tissue culture plates were purchased from Corning Incorporated (Catalog number: 430641 and 353072, respectively, Corning, NY). Trypsin/EDTA was obtained from Life Technology (Catalog number: 25200, Grand Island, NY). DPBS and HBSS were also purchased from Life Technologies (Catalog number: 14190, 14175, respectively). AlphaScreen® SureFire® Ribosomal Protein S6 Assay Kits was obtained from Perkin Elmer (Catalog number: TGRS6P2S10K).
Primary Rat Skeletal Muscle Cell (RSKMC) culture. RSKMC were isolated using protocol described herein and cryopreserved in liquid nitrogen. The cells were also maintained in RSKMC medium (Cell Applications) in T75 tissue flask in a 37° C., 5% CO2 tissue culture incubator (Model 3110, Thermo Fisher Scientific). The cells were split every three day when they reached ˜90% confluency. RSKMC cells were cultured in RSKMC medium in T75 tissue flask to 100% confluency. The culture medium was aspirated from the culture flask and rinsed once with 10 ml of DPBS, and then 1.5 ml of 0.25% trypsin/EDTA was added to the cells. After the cells were detached from the flask, 10 ml of culture medium were added. The medium was pipetted up and down with a 10 ml pipet to detach the cells from the flask. The cells were then seeded into clear bottom 96-well tissue culture plates at a density of 50,000 cells per well. Following overnight culture in a 37° C., 5% CO2 incubator, the cells were starved over a period of 4 hours with starvation DME/F12 medium without FBS and leucine in a 37° C., 5% CO2 tissue culture incubator, then starved for another hour incubation with Hank's Buffered Salt Solution (HBSS). […]

healthy subjects = details: oral supplementation vs. control; cited from earlier work
[3] = Thermostability, ProteoStat Thermal Shift Stability Kit, temperature of aggregation; format: physicochemical; details: pH 7.1; heated from 25° C. to 95° C.
Method: Thermostability. The thermostability of proteins in a buffer cocktail of Citric Acid and Dibasic Sodium Phosphate over a pH range of 2.8 to 7.1 (preparation described above in Table E31B) was determined using the ProteoStat® Thermal Shift Stability Kit (Enzo Life Sciences) according to the manufacturer's standard protocol. Briefly, protein solutions (˜10 mg/ml) containing 1× ProteoStat TS Detection Reagent were heated from 25° C. to 95° C. at a rate of 0.5° C. per 30 sec using a real-time PCR (rtPCR) thermocycler (BioRad) equipped with a plate reader (SynergyMx, Biotek) while monitoring the fluorescence with a Texas Red filter.

5-HT production = details: oral intake of free Tryptophan; cited from earlier work

Question: With “SEQID-00143: nutritive polypeptide (LYLEEVSKNLVEINPLKLEVKAKPWFVYTPMHGVGFDIFSTIVKKTLCLVEGK; listed as Saccharomyces cerevisiae)” as the compound, how does the “SGF Half-life (t½)” value [1] read?
Answer: Its value is 18 s.

Question: With “SEQID-00218: nutritive polypeptide (GTIENLEEAKKKLLKDVEVLSQRLEEKALAYDKLEKTKTRLQQELDDLLVDLDHQ; listed as Bos taurus)” as the compound, how does the “SGF Half-life (t½)” value [1] read?
Answer: The value was 360 s.

Question: Which “SGF Half-life (t½)” value [1] does the source give for “SEQID-00215: nutritive polypeptide (KKLLKDVEVLSQRLEEKALAYDKLEKTKTRLQQELDDLLVDLDHQRQIVSNLEKK; listed as Bos taurus)” here?
Answer: The value was 120 s.

Question: For `Cn1c(=O)cc(N2CCC[C@@H](N)C2)n(Cc2ccccc2C#N)c1=O` [Alogliptin], which “glucose AUC vs vehicle” value (Zucker fatty rats; 0 to 120 minutes, P=0.0051) is on record?
Answer: Its value is “significantly less than vehicle”.

Question: And the “glucose AUC vs vehicle” value (Zucker fatty rats; 0 to 240 minutes, P=0.0054)?
Answer: The value was “significantly less than vehicle”.

Question: And the “blood glucose vs vehicle” value (Zucker fatty rats; 30 minutes following glucose challenge)?
Answer: Its value is “significantly lower blood glucose than vehicle”.

Question: And the “blood glucose vs vehicle” value (Zucker fatty rats; 60 minutes following glucose challenge)?
Answer: The value was “significantly lower than vehicle”.

Question: With “SEQID-00212: nutritive polypeptide (LEEAKKKLLKDVEVLSQRLEEKALAYDKLEKTKTRLQQELDDLLVDLDHQ; listed as Bos taurus)” as the compound, how does the “SGF Half-life (t½)” value [1] read?
Answer: Its value is 18 s.

Question: With `NC(=O)CC[C@H](N)C(=O)O` [Glutamine] as the compound, how does the “decrease in Lactulose/mannitol ratio” value (burn injury; after 3 days, vs 5.5× decrease) read?
Answer: The value was 8.8 ×.

Question: And the “reduction in hospital stay” value (burn injury)?
Answer: Its value is 6 days.

Question: What does the source list for `CC(C)C[C@H](N)C(=O)O` [leucine]?
Answer: phosphorylation of rps6 ([2]; primary RSkMC, complete amino acid medium and minimal 12 amino acid mixture): stimulates phosphorylation of rps6 in primary RSkMC in a dose-dependent manner; phosphorylation of rps6 (relative alphascreen signal) ([2]; primary RSkMC, different Leucine concentrations): stimulates phorphorylation of rps6 in primary RSkMC in a dose-dependent manner; mTOR RPS6 pathway stimulation ([2]; primary cells from Soleus, gastrocnemius and extensor digitorum longus): stimulates mTOR RPS6 pathway using isolated primary cells in a dose dependent manner

Question: Which “increase in collagen deposition at wound sites” value (healthy subjects) does the source give for `N=C(N)NCCC[C@H](N)C(=O)O` [Arginine] here?
Answer: The value was 2.4 ×.

Question: Which “Tagg (pH 7.1)” value [3] does the source give for “SEQID-00237: nutritive polypeptide (EEDKVNTLTKAKTKLEQQVDDLEGSLEQEKKLRMDLERAKRKLEGDLKLA; listed as Bos taurus)” here?
Answer: The value was 45.

Question: What about the “SGF Half-life (t½)” value [1] of the same compound?
Answer: Its value is 36 s.

Question: With `N[C@@H](Cc1c[nH]c2ccccc12)C(=O)O` [Tryptophan] as the compound, how does the “increase of 5-HT production” value (5-HT production) read?
Answer: The value was 2 fold.
